Results taken from ChEMBL document CHEMBL5335837, “Reinvestigation of diphenylmethylpiperazine analogues of pyrazine as new class of Plasmodial cysteine protease inhibitors for the treatment of malaria” (RSC Med Chem, 2024).
The source made the active and inactive calls. No cut-off for these calls is given here.

tested on: Plasmodium falciparum; test: Antimalarial activity against Plasmodium falciparum 3D7 assessed as reduction in parasite growth incubated for 48 to 50 hrs by microplate reader analysis; type: functional, organism-based; conditions: not given

SMILES | IC50
Oc1ccccc1C(c1ccc(F)cc1)N1CCN(c2cnccn2)CC1 (configuration not stated) | Not Determined(Insoluble)

same assay, conditions: Plasmodium falciparum, 3D7; read-out: IC50

SMILES | IC50 [µM]
COc1cccc(C(c2ccc(F)cc2)N2CCN(c3cnccn3)CC2)c1O (configuration not stated) | > 12.5
Oc1ccccc1C(c1ccc(OC(F)(F)F)cc1)N1CCN(c2cnccn2)CC1 (configuration not stated) | 2.8
COc1ccc(C(c2ccccc2O)N2CCN(c3cnccn3)CC2)cc1 (configuration not stated) | 17.2
COc1cccc(C(c2ccc(C)cc2)N2CCN(c3cnccn3)CC2)c1O (configuration not stated) | > 12.5
COc1ccc(C(c2cccc(OC)c2O)N2CCN(c3cnccn3)CC2)cc1 (configuration not stated) | > 12.5
Oc1ccccc1C(c1ccc(F)c(F)c1)N1CCN(c2cnccn2)CC1 (configuration not stated) | 3.91
COc1cccc(C(c2ccc(F)c(F)c2)N2CCN(c3cnccn3)CC2)c1O (configuration not stated) | 13.5
Oc1ccccc1C(c1ccc(F)c(Cl)c1)N1CCN(c2cnccn2)CC1 (configuration not stated) | 4.1
COc1cccc(C(c2ccc(F)c(Cl)c2)N2CCN(c3cnccn3)CC2)c1O (configuration not stated) | 7.32

target: T1, Falcipain 2 (Plasmodium falciparum, UniProt Q9N6S8); test: Inhibition of Plasmodium falciparum FP2 using Z-Leu-Arg-AMC as substrate incubated for 30 mins by spectrofluorometry analysis; conditions: not given
T1 sequence (Q9N6S8 whole entry): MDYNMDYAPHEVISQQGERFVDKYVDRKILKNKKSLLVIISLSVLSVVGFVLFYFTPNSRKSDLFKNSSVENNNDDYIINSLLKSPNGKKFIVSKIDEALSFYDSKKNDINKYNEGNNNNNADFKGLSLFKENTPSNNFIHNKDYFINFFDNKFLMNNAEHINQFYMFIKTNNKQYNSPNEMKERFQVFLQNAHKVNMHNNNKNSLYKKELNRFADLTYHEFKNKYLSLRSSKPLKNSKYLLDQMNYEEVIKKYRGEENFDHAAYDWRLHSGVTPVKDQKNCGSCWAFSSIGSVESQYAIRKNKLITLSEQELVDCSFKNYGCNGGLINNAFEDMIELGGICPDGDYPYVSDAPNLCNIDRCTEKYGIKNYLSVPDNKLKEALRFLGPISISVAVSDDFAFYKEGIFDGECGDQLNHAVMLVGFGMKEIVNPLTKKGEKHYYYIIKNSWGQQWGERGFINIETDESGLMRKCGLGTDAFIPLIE

SMILES | IC50 [µM]
Oc1ccccc1C(c1ccc(OC(F)(F)F)cc1)N1CCN(c2cnccn2)CC1 (configuration not stated) | 5.9
COc1ccc(C(c2ccccc2O)N2CCN(c3cnccn3)CC2)cc1 (configuration not stated) | 31.1
COc1cccc(C(c2ccc(F)c(F)c2)N2CCN(c3cnccn3)CC2)c1O (configuration not stated) | 24.3

tested on: Plasmodium falciparum; test: Antimalarial activity against Plasmodium falciparum 3D7 assessed as decrease in new ring formation at 3 times IC50 concentration incubated for 48 hrs by Geimsa staining based analysis; type: functional, organism-based; conditions: not given

SMILES | Activity
Oc1ccccc1C(c1ccc(OC(F)(F)F)cc1)N1CCN(c2cnccn2)CC1 (configuration not stated) | Active
COc1ccc(C(c2ccccc2O)N2CCN(c3cnccn3)CC2)cc1 (configuration not stated) | Active

tested on: Plasmodium falciparum; test: Resistance index, ratio of IC50 for antimalarial activity against Plasmodium falciparum 3D7 to IC50 for antimalarial activity against Plasmodium falciparum W2; type: functional; conditions: not given

SMILES | Ratio IC50
Oc1ccccc1C(c1ccc(OC(F)(F)F)cc1)N1CCN(c2cnccn2)CC1 (configuration not stated) | 0.83
COc1ccc(C(c2ccccc2O)N2CCN(c3cnccn3)CC2)cc1 (configuration not stated) | 8.04
COc1cccc(C(c2ccc(F)c(F)c2)N2CCN(c3cnccn3)CC2)c1O (configuration not stated) | 1.73

tested on: not listed separately; test: Selectivity index, ratio of IC50 for cytotoxicity against african green monkey vero cells to IC50 for antimalarial activity against Plasmodium falciparum W2; type: toxicity, cell-based; conditions: read-out: Ratio IC50

SMILES | selectivity ratio
Oc1ccccc1C(c1ccc(OC(F)(F)F)cc1)N1CCN(c2cnccn2)CC1 (configuration not stated) | 295
COc1ccc(C(c2ccccc2O)N2CCN(c3cnccn3)CC2)cc1 (configuration not stated) | 467
COc1cccc(C(c2ccc(F)c(F)c2)N2CCN(c3cnccn3)CC2)c1O (configuration not stated) | 129

tested on: Plasmodium falciparum; test: Antimalarial activity against Plasmodium falciparum 3D7 assessed as decrease in development of early trophozoite stage at 3 times IC50 incubated for 48 hrs by Geimsa staining based analysis; type: functional, organism-based; conditions: not given

SMILES | Activity
Oc1ccccc1C(c1ccc(OC(F)(F)F)cc1)N1CCN(c2cnccn2)CC1 (configuration not stated) | Active
COc1ccc(C(c2ccccc2O)N2CCN(c3cnccn3)CC2)cc1 (configuration not stated) | Active

tested on: not listed separately; test: Selectivity index, ratio of IC50 for cytotoxicity against african green monkey vero cells to IC50 for cytotoxicity against human A549 cells; conditions: not given

SMILES | Ratio IC50
Oc1ccccc1C(c1ccc(OC(F)(F)F)cc1)N1CCN(c2cnccn2)CC1 (configuration not stated) | 10.89
COc1ccc(C(c2ccccc2O)N2CCN(c3cnccn3)CC2)cc1 (configuration not stated) | 1.95
COc1cccc(C(c2ccc(F)c(F)c2)N2CCN(c3cnccn3)CC2)c1O (configuration not stated) | 4.92

tested on: not listed separately; test: Selectivity index, ratio of IC50 for cytotoxicity against african green monkey vero cells to IC50 for antimalarial activity against Plasmodium falciparum 3D7; type: toxicity, cell-based; conditions: read-out: Ratio IC50

SMILES | selectivity ratio
Oc1ccccc1C(c1ccc(OC(F)(F)F)cc1)N1CCN(c2cnccn2)CC1 (configuration not stated) | 357
COc1ccc(C(c2ccccc2O)N2CCN(c3cnccn3)CC2)cc1 (configuration not stated) | 58.1
COc1cccc(C(c2ccc(F)c(F)c2)N2CCN(c3cnccn3)CC2)c1O (configuration not stated) | 74.1

tested on: not listed separately; test: Selectivity index, ratio of IC50 for cytotoxicity against human A549 cells to IC50 for antimalarial activity against Plasmodium falciparum W2; type: toxicity, cell-based; conditions: read-out: Ratio IC50

SMILES | selectivity ratio
Oc1ccccc1C(c1ccc(OC(F)(F)F)cc1)N1CCN(c2cnccn2)CC1 (configuration not stated) | 27.1
COc1ccc(C(c2ccccc2O)N2CCN(c3cnccn3)CC2)cc1 (configuration not stated) | 240
COc1cccc(C(c2ccc(F)c(F)c2)N2CCN(c3cnccn3)CC2)c1O (configuration not stated) | 26.1

tested on: Plasmodium falciparum; test: Antimalarial activity against Plasmodium falciparum W2 assessed as reduction in parasite growth incubated for 48 to 50 hrs by microplate reader analysis; type: functional, organism-based; conditions: not given

SMILES | IC50 [µM]
Oc1ccccc1C(c1ccc(OC(F)(F)F)cc1)N1CCN(c2cnccn2)CC1 (configuration not stated) | 3.39
COc1ccc(C(c2ccccc2O)N2CCN(c3cnccn3)CC2)cc1 (configuration not stated) | 2.14
COc1cccc(C(c2ccc(F)c(F)c2)N2CCN(c3cnccn3)CC2)c1O (configuration not stated) | 7.78

target: T2, Falcipain-3 (Plasmodium falciparum 3D7, UniProt Q8IIL0); test: Inhibition of Plasmodium falciparum FP3 using Z-Leu-Arg-AMC as substrate incubated for 30 mins by spectrofluorometry analysis; conditions: not given
T2 sequence (Q8IIL0 whole entry): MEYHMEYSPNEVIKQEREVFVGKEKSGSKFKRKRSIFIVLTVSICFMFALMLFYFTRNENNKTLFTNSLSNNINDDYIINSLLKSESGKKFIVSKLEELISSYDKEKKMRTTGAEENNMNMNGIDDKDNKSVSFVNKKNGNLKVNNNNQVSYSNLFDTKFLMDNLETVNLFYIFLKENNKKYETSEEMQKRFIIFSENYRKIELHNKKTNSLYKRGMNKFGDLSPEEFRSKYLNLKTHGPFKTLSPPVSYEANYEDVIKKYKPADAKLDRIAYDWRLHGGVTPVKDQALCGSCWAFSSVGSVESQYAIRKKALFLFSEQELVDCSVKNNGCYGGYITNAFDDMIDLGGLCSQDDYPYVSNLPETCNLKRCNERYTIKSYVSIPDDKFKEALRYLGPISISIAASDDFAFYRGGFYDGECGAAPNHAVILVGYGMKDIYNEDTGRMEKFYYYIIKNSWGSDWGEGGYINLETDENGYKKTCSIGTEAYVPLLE

SMILES | IC50 [µM]
Oc1ccccc1C(c1ccc(OC(F)(F)F)cc1)N1CCN(c2cnccn2)CC1 (configuration not stated) | 6.4
COc1ccc(C(c2ccccc2O)N2CCN(c3cnccn3)CC2)cc1 (configuration not stated) | 33.9
COc1cccc(C(c2ccc(F)c(F)c2)N2CCN(c3cnccn3)CC2)c1O (configuration not stated) | 27.6

tested on: not listed separately; test: Selectivity index, ratio of IC50 for cytotoxicity against human A549 cells to IC50 for antimalarial activity against Plasmodium falciparum 3D7; type: toxicity, cell-based; conditions: read-out: Ratio IC50

SMILES | selectivity ratio
Oc1ccccc1C(c1ccc(OC(F)(F)F)cc1)N1CCN(c2cnccn2)CC1 (configuration not stated) | 32.8
COc1ccc(C(c2ccccc2O)N2CCN(c3cnccn3)CC2)cc1 (configuration not stated) | 29.9
COc1cccc(C(c2ccc(F)c(F)c2)N2CCN(c3cnccn3)CC2)c1O (configuration not stated) | 15.1

tested on: Erythrocyte; test: Hemolytic activity in human RBCs at 100 uM incubated for 2 hrs by microplate reader analysis; type: toxicity, cell-based; conditions: not given

SMILES | Activity
COc1cccc(C(c2ccc(F)cc2)N2CCN(c3cnccn3)CC2)c1O (configuration not stated) | Non-Toxic
Oc1ccccc1C(c1ccc(OC(F)(F)F)cc1)N1CCN(c2cnccn2)CC1 (configuration not stated) | Non-Toxic
COc1ccc(C(c2ccccc2O)N2CCN(c3cnccn3)CC2)cc1 (configuration not stated) | Non-Toxic
COc1cccc(C(c2ccc(C)cc2)N2CCN(c3cnccn3)CC2)c1O (configuration not stated) | Non-Toxic
COc1ccc(C(c2cccc(OC)c2O)N2CCN(c3cnccn3)CC2)cc1 (configuration not stated) | Non-Toxic
Oc1ccccc1C(c1ccc(F)c(F)c1)N1CCN(c2cnccn2)CC1 (configuration not stated) | Non-Toxic
COc1cccc(C(c2ccc(F)c(F)c2)N2CCN(c3cnccn3)CC2)c1O (configuration not stated) | Non-Toxic
Oc1ccccc1C(c1ccc(F)c(Cl)c1)N1CCN(c2cnccn2)CC1 (configuration not stated) | Non-Toxic
COc1cccc(C(c2ccc(F)c(Cl)c2)N2CCN(c3cnccn3)CC2)c1O (configuration not stated) | Non-Toxic
Oc1ccccc1C(c1ccc(F)cc1)N1CCN(c2cnccn2)CC1 (configuration not stated) | Non-Toxic

tested on: Vero; test: Cytotoxicity against african green monkey Vero cells upto 1000 uM measured after 72 hrs by MTT assay; type: toxicity, cell-based; conditions: chlorocebus sabaeus

SMILES | Activity
Oc1ccccc1C(c1ccc(OC(F)(F)F)cc1)N1CCN(c2cnccn2)CC1 (configuration not stated) | Non-Toxic
COc1ccc(C(c2ccccc2O)N2CCN(c3cnccn3)CC2)cc1 (configuration not stated) | Non-Toxic
COc1cccc(C(c2ccc(F)c(F)c2)N2CCN(c3cnccn3)CC2)c1O (configuration not stated) | Non-Toxic

tested on: A549; test: Anticancer activity against human A549 cells measured after 24 hrs by MTT assay; type: functional, cell-based; conditions: A549, 24 h

SMILES | IC50 [µM]
Oc1ccccc1C(c1ccc(OC(F)(F)F)cc1)N1CCN(c2cnccn2)CC1 (configuration not stated) | 91.8
COc1ccc(C(c2ccccc2O)N2CCN(c3cnccn3)CC2)cc1 (configuration not stated) | 514
COc1cccc(C(c2ccc(F)c(F)c2)N2CCN(c3cnccn3)CC2)c1O (configuration not stated) | 203
